“Also recorded” adds a separate entry of the source.
Columns and labels:
mouse vaginal epithelium = experiment: Mitotic index in estrogen-stimulated vaginal epithelium of female mice; assay type: in vivo, Kunming mice; conditions: 1.0 mg/kg i.p. once a day, 3 days; percent of mitotic cells
Excerpt: (§1) Materials: Meisoindigo was synthesized, purified and its structure characterized by Natrogen Therapeutics, Inc. The purity of the compound was 98.5% as described in the Examples above. A suspension of Meisoindigo was freshly prepared in 0.5% sodium methylcellulose and given orally for the animal tests described below. Other chemicals used in the following experiments were purchased from Sigma.
(§2) Pathogen-free female Kunming mice at 12 weeks of age with body weights from 22 to 25 grams were housed 5 per cage, and given, ad libitum, fresh tap water and commercial rodent pellets. Animal rooms were controlled at 24±2° C. with a relative humidity of 60±5% and a 12 hour light/dark cycle (07:00-19:00 hr).
Anti-mitotic Effects of Meisoindigo on Mouse Vaginal Epithelium: Sixty Kunming female mice were randomly divided into 5 groups, 20 in one control group, and 10 in 4 drug-tested groups. All mice were given estrogen at a dose of 0.2 mg/animal for 3 days to allow vaginal epithelial cells to develop under the stimulation of estrogen hormone. Meisoindigo was freshly prepared as a suspension in 0.5% of sodium methylcellulose. The drug was given orally at doses of 50, 100, and 200 mg/kg, respectively, once a day for 3 days. Methotrexate (MTX) was used as a positive control at a dose of 1 mg/kg, i.p. once a day for the same period of time. […] The mitotic index (percent of mitotic cells) was calculated.

[1] = system: scale epithelial cells of mouse-tails; experiment: Mouse-tail model: granular layer formation in scale epithelial cells; assay type: in vivo, Kunming mice; conditions: 1.0 mg/kg i.p. once every 2 days, 13 days
Excerpt: as §1, §2
Effect of Meisoindigo on Epidermal Cell Differentiation in Mouse Tails: Sixty female Kunming mice were randomly divided into 5 groups, 20 in one control group, and 10 in 4 drug-tested groups. Meisoindigo was freshly prepared as a suspension in 0.5% of sodium methylcellulose. The drug was given orally at doses of 50, 100, and 200 mg/kg, respectively, once a day for 13 days. Methotrexate (MTX) was used as a positive control at a dose of 1 mg/kg, i.p. once every 2 days, for the same period of time. The same volume and vehicle for Meisoindigo suspension were used as a negative control. […] Slides were prepared for histological examination as originally described by Bosman et. al., (106). The slides were prepared by cutting the tails into longitudinal sections, and Hematoxylin and Eosin (H&E) stained. The slides were then examined with a light microscope to evaluate the degree of orthokeratosis (OK) and epidermal hyperplasia. The former was done by measuring the horizontal length of the fully developed granular layer stratum granulosum within an individual scale in relation to its total length. Drug activity was defined by the increase of the positive scale cells containing granular layer stratum granulosum between two folliculus pili.

IL-10 = IL-10 secretion (ELISA) in THP-1 cells; assay type: cell-based, human
Excerpt: (§5) Viability of cells was examined under microscope after trypan blue staining.
Viability of cells was examined by trypan blue exception assay.

IL-6 = IL-6 secretion (ELISA) in LPS-stimulated THP-1 cells; assay type: cell-based, human; conditions: as low as 31.25 nM (31.25 and 62.5 nM in FIG. 6), 24 h
Procedure: as §5
Standard IL-6 protein was used to establish a standard curve for the calculation of IL-6 in the medium secreted by the cells (LPS-stimulated or non-stimulated cells in the presence or absence of Meisoindigo).
(§6) 1) Effects of Meisoindigo and NATURA on the expression/secretion of cytokines IL-1β, IL-6, IL-10: The human monocytic THP-1 cells grown exponentially were stimulated with or without 1 μM of lipopolysaccharide (LPS, Sigma), and exposed for 24 hours to different concentrations of Meisoindigo and NATURA (from 31.25 nM and 62.5 nM), respectively. Viability of cells was examined by trypan blue exception assay.

cyclin D1 = experiment: Cyclin D1 levels in THP-1 cells; assay type: cell-based, human; conditions: 31.25 and 62.5 nM, 24 h; data not shown
[2] = molecular target: T1, glycogen synthase kinase-3β (GSK-3β) (Homo sapiens, UniProt P49841); experiment: Effect on glycogen synthase kinase-3β in cells; assay type: cell-based; conditions: as high as 50 μM; data not shown
T1 construct: endogenous in cells

CDK2 = molecular target: T2, CDK2 (Homo sapiens, UniProt P24941); experiment: Cyclin dependent kinase activity in THP-1 cells (immunoprecipitation, histone H1 phosphorylation); assay type: cell-based; conditions: 24 h
T2 construct: endogenous in cells; host or cells: THP-1
Procedure: (§3) 2) Effects of Meisoindigo and/or NATURA on activity of cyclin dependent kinases (CDK) in THP-1 cells (99): THP-1 cells grown exponentially were exposed to […] of Meisoindigo or NATURA for 24 hr, respectively.
(§4) The cells were harvested, washed, and total proteins extracted as described previously (100). One hundred μg of the proteins were immuno-precipitated using antibodies against either cdk2, cdk4/6 or cyclin D1 overnight at 4° C. in the presence of a cocktail of protease inhibitors. The immuno-precipitates were washed 4 times with protein extraction buffer and once with kinase assay buffer, and reacted with […] histone H1 in the presence of [γ-^32P]-ATP (10 μCi/10 μM). The phosphorylated histone H1 (represent cdk activity) was measured by scintillation counting or by SDS-polyacrylaimde gel electrophoresis (101, 102).

cdk4/6 = experiment: as above; assay type: cell-based, human; conditions: 31.25 and 62.5 nM, 24 h
Procedure: as §3, §4

IL-1β = IL-1β secretion (ELISA) in LPS-stimulated THP-1 cells; assay type: cell-based, human; conditions: as low as 31.25 nM (31.25 and 62.5 nM in FIG. 6), 24 h
Procedure: It was prepared in a solution of dimethyl sulfoxide (DMSO), and stored under −20° C. for the experiments in vitro. Human monocytic cell line, THP-1 (90), was purchased from ATCC. The cells were maintained according to the supplier's instructions. Approximately 1×10^5 cells/ml were cultured at 37° C., 5% CO2 for 24 hours in Modified RPMI-1640 Medium (Invitrogen) supplemented with 10% FBS.
Viability of cells was examined under microscope after trypan blue staining. Protein levels of IL-1β secreted into the culture media by the cells were then measured by ELISA and calculated from its standard curve using an assay Kit from R&D Systems according to instructions provided by the supplier.
Statistical Analysis: All data were expressed as a mean±SD. Statistical significance of any difference between the control (LPS) and experimental groups was determined by the Student's t-test. P values between the 2 groups must be at least smaller than 0.05 to be considered statistically significant.
as §6

T1 sequence (P49841 whole entry): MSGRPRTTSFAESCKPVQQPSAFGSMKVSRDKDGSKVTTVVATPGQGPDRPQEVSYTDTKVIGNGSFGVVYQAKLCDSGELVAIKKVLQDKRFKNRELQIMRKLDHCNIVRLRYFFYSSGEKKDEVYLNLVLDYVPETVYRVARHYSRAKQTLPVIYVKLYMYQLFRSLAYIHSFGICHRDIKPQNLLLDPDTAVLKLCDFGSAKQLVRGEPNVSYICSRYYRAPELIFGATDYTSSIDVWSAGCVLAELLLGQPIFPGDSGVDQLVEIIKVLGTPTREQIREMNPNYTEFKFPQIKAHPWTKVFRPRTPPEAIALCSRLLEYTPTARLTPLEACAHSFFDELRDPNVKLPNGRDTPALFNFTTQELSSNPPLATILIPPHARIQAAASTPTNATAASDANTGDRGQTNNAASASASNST

Compound: CN(Cc1cnc2nc(N)nc(N)c2n1)c1ccc(C(=O)N[C@@H](CCC(=O)O)C(=O)O)cc1 [MTX, Methotrexate, reference compound]
- Mitotic Index (X ± SD) (mouse vaginal epithelium): 14.76±4.29
- Granulous Scales (X ± SD) [1]: 17.22 ± 4.92

Compound: CC(=O)OC1COC(N2C(=O)/C(=C3/C(=O)Nc4ccccc43)c3ccccc32)C(OC(C)=O)C1OC(C)=O (centres unmarked) [NATURA]
- effect on IL-10 production (IL-10; 31.25 and 62.5 nM, 24 h): promoted production
- elevation of LPS-suppressed IL-10 (IL-10; similar concentrations (as low as 31.25 nM), FIG. 6A): ~2 fold
- effect on IL-6 production/secretion (IL-6): significantly inhibit
- effect on levels of cyclin D1 (cyclin D1): failed to inhibit
- activity on GSK-3β [2]: no activity was observed
- partial inhibition of CDK activity (CDK2; 1.5 μM, FIG. 6B): 23%
- inhibition of CDK2 activity (CDK2; 31.25 and 62.50 nM): failed to inhibit; also recorded: no inhibitory effect
- inhibition of cyclin dependent kinase 4 and 6 activity (cdk4/6): failed to inhibit
- effect on IL-1β production (IL-1β): significantly inhibit
